From patent publication US11225469B2, “Inhibitors of phosphoglycerate dehydrogenase (PHGDH) and uses thereof” (Whitehead Institute for Biomedical Research, priority 2015, dated 2022)

target: PHGDH (Homo sapiens (Human), UniProt O43175); assay: PHGDH inhibition, coupled assay with PSAT1/PSPH and diaphorase/resazurin readout; format: biochemical; conditions: Table E9; mixture with PSAT1, PSPH; diaphorase/resazurin reporter
Sequence (O43175 whole entry): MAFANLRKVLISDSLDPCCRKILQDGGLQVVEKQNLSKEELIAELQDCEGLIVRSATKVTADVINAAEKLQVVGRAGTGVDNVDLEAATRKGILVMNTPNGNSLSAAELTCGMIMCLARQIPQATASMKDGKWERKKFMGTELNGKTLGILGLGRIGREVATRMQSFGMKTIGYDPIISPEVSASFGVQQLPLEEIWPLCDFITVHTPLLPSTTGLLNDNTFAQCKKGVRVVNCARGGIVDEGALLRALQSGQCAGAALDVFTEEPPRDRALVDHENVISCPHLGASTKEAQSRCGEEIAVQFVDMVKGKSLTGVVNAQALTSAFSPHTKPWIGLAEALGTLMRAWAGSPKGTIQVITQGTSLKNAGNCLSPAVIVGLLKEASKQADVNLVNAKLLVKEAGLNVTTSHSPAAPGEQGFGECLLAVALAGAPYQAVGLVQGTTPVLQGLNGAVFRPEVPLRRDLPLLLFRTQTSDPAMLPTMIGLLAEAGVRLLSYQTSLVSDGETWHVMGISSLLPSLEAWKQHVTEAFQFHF
Experimental: Compounds of the invention were assayed for inhibition of the activity phosphoglycerate dehydrogenase (PHGDH). The compounds were assayed in a mixture comprising PHGDH, PSAT1, PSPH, NADH, and glutamate. Diaphorase and resazurin were used as a fluorescent reporter system.
In this endogenous pathway coupled assay, the production of NADH by PHGDH was measured through the diaphorasemediated reduction of resazurin (See, e.g., Chakraborty, S., Sakka, M., Kimura, T. & Sakka, K. “Characterization of a dihydrolipoyl dehydrogenase having diaphorase activity of Clostridium kluyveri.” BioscL Biotechnol. Biochem. 72, 982-988 (2008)).
PHGDH assay buffer contained 50 mM TEA pH 8.0, 10 mM MgCl2, 0.05% BSA, and 0.01% Tween-20. PHGDH enzyme buffer consisted of assay buffer with 20 nM PHGDH and 0.2 mg/mL diaphorase. PHGDH substrate buffer contained 0.3 mM NAD 1.25 mM glutamate, 0.1 mM 3-phosphoglycerate, 0.2 mM resazurin, 1 μM PSAT1, and 1 μM PSPH. qHTS was performed in 1536-well plates dispensed with a BioRAPTR FRD. Each well contained equal volumes of substrate buffer and assay buffer. Plates were read at 0 minutes and 20 minutes at room temperature with a ViewLux uHTS Microplate Imager (PerkinElmer). Follow-up assays were performed in black 384-well plates (Greiner) in 20 μL of enzyme buffer to which compounds were added in dose-response with an HP D300 digital dispenser (Hewlett-Packard), followed by addition of 20 μL of substrate buffer. Plates were incubated at room temperature (25° C.) and read at 0 and 20 minutes with a Spectramax M5 plate reader (Molecular Devices) in fluorescence intensity mode with a λex=550 nm and λem=600 nm (emission cutoff=590 nm).

Row | SMILES | IC50 [µM]
1 | Cc1cc(C)nc(NC(=S)N2CCN(c3cccc([S+](C)[O-])c3)CC2)c1 (stereo not drawn) [Compound 139] | ≥ 20
2 | Cc1cc(C)nc(NC(=S)N2CCN(c3ccc(-c4ccccc4)cc3)CC2)c1 [Compound 133] | ≥ 20
3 | COc1ccc2nc(NC(=S)N3CCN(c4cccc(C(F)(F)F)c4)CC3)[nH]c2c1 [Compound 240] | ≥ 20
4 | Cc1ccnc(C(=S)N2CCN(c3cccc(C(F)(F)F)c3)CC2)c1 [Compound 62] | ≥ 20
5 | FC(F)(F)c1cccc(N2CCN(C(=S)Nc3cnccn3)CC2)c1 [Compound 128] | ≥ 20
6 | Cc1cc(C)nc(NC(=S)N2CCN(Cc3ccc(C(F)(F)F)cc3)C(CO)C2)c1 (stereo not drawn) [Compound 294] | 10 to 20
7 | COc1ccccc1N[S+](=O)([O-])c1cc(NC(=O)c2ccc3ccccc3n2)ccc1N1CCCC1 [Compound 249] | ≥ 20
8 | Cc1cc(C)nc(NC(=S)N2CCN(Cc3ccc(C(F)(F)F)cc3)C(c3ccccc3)C2)c1 (stereo not drawn) [Compound 273] | 10 to 20
9 | Cc1cc(C)nc(NC(=S)N2CCN(c3cccc(C(=O)O)c3)CC2)c1 [Compound 102] | ≥ 20
10 | Cc1cc(C)nc(NC(=S)N2CCN(c3ccc4nncn4c3)CC2)c1 [Compound 161] | ≥ 20
11 | Cc1cc(C)nc(NC(=S)N2CCN(Cc3ccc(Cl)cc3)CC2)c1 [Compound 280] | 10 to 20
12 | Cc1cc(C)nc(NC(=S)N2CCC(CN3CCOCC3)CC2)c1 [Compound 270] | ≥ 20
13 | Cc1ccnc(NC(=S)N2CCN(C)CC2)c1 [Compound 16] | ≥ 20
14 | OCc1ccnc(NC(=S)N2CCN(c3cccc(C(F)(F)F)c3)CC2)c1 [Compound 27] | ≥ 20
15 | Cc1cc(C)nc(NC(=S)N2CCN(c3ccc4ncccc4c3[N+](=O)[O-])CC2)c1 [Compound 124] | 10 to 20
16 | Cc1cc(C)nc(NC(=S)N2CCN(Cc3ccccn3)CC2)c1 [Compound 287, N-(4,6-dimethylpyridin-2-yl)-4-(pyridin-2-ylmethyl)piperazine-1-carbothioamide] | ≥ 20
17 | Cc1ccnc(NC(=S)NC2CN(c3cccc(C(F)(F)F)c3)C2)c1 [Compound 47] | ≥ 20
18 | Cc1cc(C)nc(NC(=S)N2CCN(Cc3ccccc3C(F)(F)F)CC2)c1 [Compound 278] | 10 to 20
19 | Cc1cc(C)nc(NC(=S)N2CCN(c3nc(C)cnc3C)CC2)c1 [Compound 104] | ≥ 20
20 | Cc1cc(C)nc(NC(=S)N2CCN(Cc3ccc(Br)cc3)CC2)c1 [Compound 281] | 10 to 20

Row | SMILES | IC50 [µM]
21 | Cc1cc(C)nc(NC(=S)N2CCN(Cc3ccccc3C)CC2)c1 [Compound 276] | ≥ 20
22 | Cc1cc(C)nc(NC(=S)N2CCN(Cc3ccc(F)cc3)CC2)c1 [Compound 279] | 10 to 20
23 | Cc1cc(C)nc(NC(=S)N2CCN(c3cc(Cl)cc(Cl)n3)CC2)c1 [Compound 207] | ≥ 20
24 | Cc1ccnc(NC(=S)N2CCN(c3cccc(C(F)(F)F)c3)C2)c1 [Compound 44] | ≥ 20
25 | COc1cc(NC(=S)N2CCN(c3cccc(C(F)(F)F)c3)CC2)nc2ccccc12 [Compound 130] | 10 to 20
26 | CC(=O)N1CCN(C(=S)Nc2cc(C)ccn2)CC1 [Compound 18] | ≥ 20
27 | Cc1cc(C)nc(NC(=S)N2CCN(c3ccc4nccn4c3)CC2)c1 [Compound 162] | ≥ 20
28 | Cc1cc(C)nc(NC(=S)N2CCN(c3ncnc4sccc34)CC2)c1 [Compound 120] | ≥ 20
29 | Cc1cc(C)nc(NC(=S)N2CCN(c3cnccn3)CC2)c1 [Compound 118] | ≥ 20
30 | COc1ccccc1N[S+](=O)([O-])c1cc(NC(=O)Cc2ccc(Cl)cc2Cl)ccc1N1CCCC1 [Compound 248] | ≥ 20
31 | Cc1ccnc(NC(=O)N2CCN(c3cccc(C(F)(F)F)c3)CC2)c1 [Compound 3] | ≥ 20
32 | Cc1cc(C)nc(NC(=S)N2CCN(c3nncs3)CC2)c1 [Compound 131] | ≥ 20
33 | Nc1nc(NC(=S)N2CCN(c3cccc(C(F)(F)F)c3)CC2)n[nH]1 [Compound 231] | ≥ 20
34 | Cc1cc(C)nc(NC(=S)N2CCN(c3nc4ccccc4s3)CC2)c1 [Compound 106] | 10 to 20
35 | CC(=O)c1ccc(N2CCN(C(=S)Nc3cc(C)ccn3)CC2)cc1 [Compound 14] | ≥ 20
36 | Cc1cc(C)nc(NC(=S)N2CCN(c3ccc(Cl)c(Cl)c3)CC2)c1 [Compound 92] | ≥ 20
37 | COc1ccccc1CN1CCN(C(=S)Nc2cc(C)cc(C)n2)CC1 [Compound 286] | 10 to 20
38 | Cc1cc(C)nc(NC(=S)N2CCN(c3cccc4cnccc34)CC2)c1 [Compound 147] | 10 to 20
39 | Cc1cc(C)nc(NC(=S)N2CCC(C(=O)N3CCOCC3)CC2)c1 [Compound 257] | ≥ 20
40 | Cc1cc(C)nc(NC(=S)N2CCN(c3ccc(F)c(F)c3F)CC2)c1 [Compound 208] | 10 to 20

Next, values leading:

Row | IC50 [µM] | SMILES
41 | < 5 | COc1ccnc(NC(=S)N2CCN(c3cccc(C(F)(F)F)c3)CC2)c1 [Compound 36]
42 | 10 to 20 | Cc1cc(C)nc(NC(=S)N2CCN(c3nc4ccccc4o3)CC2)c1 [Compound 105]
43 | < 5 | Cc1ccc(CN2CCN(C(=S)Nc3cc(C)cc(C)n3)CC2)cc1 [Compound 292]
44 | < 5 | Cc1cc(C)nc(NC(=S)N2CCC(Nc3ccc(C(F)(F)F)cc3)CC2)c1 [Compound 258]
45 | 10 to 20 | Cc1cc(C)nc(NC(=S)N2CCN(Cc3cccc(Br)c3)CC2)c1 [Compound 282]
46 | 5 to 10 | Cn1c(NC(=S)N2CCN(c3cccc(C(F)(F)F)c3)CC2)nc2ccccc21 [Compound 229]
47 | < 5 | Cc1cc2nc(NC(=S)N3CCN(c4cccc(C(F)(F)F)c4)CC3)[nH]c2cc1C [Compound 244]
48 | 5 to 10 | FC(F)(F)c1cccc(N2CCN(C(=S)Nc3nc[nH]n3)CC2)c1 [Compound 233]
49 | 5 to 10 | Cc1cc(C)nc(NC(=S)N2CCN(c3cccc(Cl)c3Cl)CC2)c1 [Compound 93]
50 | < 5 | Cc1cc(C)nc(NC(=S)N2CCC(Nc3cccc(C(F)(F)F)c3)CC2)c1 [Compound 250]
51 | 5 to 10 | Cc1ccnc(NC(=S)N2CCN(c3ccc(C(F)(F)F)cc3)CC2)c1 [Compound 4]
52 | < 5 | Cc1cc(C)nc(NC(=S)N2CCC(NC(=O)c3cccc(C(F)(F)F)c3)CC2)c1 [Compound 263]
53 | 5 to 10 | Cc1cc(C)nc(NC(=S)N2CCN(c3ccc(Cl)cc3Cl)CC2)c1 [Compound 68]
54 | 5 to 10 | COc1ccnc(NC(=S)N2CCN(c3cccc(C(F)(F)F)n3)CC2)c1 [Compound 184]
55 | 5 to 10 | Cc1ccnc(NC(=S)N2CCN(c3ccc(Cl)c(Cl)c3)CC2)c1 [Compound 173]
56 | < 5 | Cc1cc(C)nc(NC(=S)N2CCN(Cc3ccc(C(F)(F)F)cc3)[C@H](C)C2)c1 [Compound 298]
57 | 5 to 10 | Cc1cc(C)nc(NC(=S)N2CCN(Cc3c(F)cccc3Cl)CC2)c1 [Compound 94]
58 | 5 to 10 | Cc1ccnc(NC(=S)N2CCN(c3cccc(Cl)c3Cl)CC2)c1 [Compound 171]
59 | < 5 | Cc1cc(C)nc(NC(=S)N2CCCC(Nc3cccc(C(F)(F)F)c3)C2)c1 (stereo not drawn) [Compound 251]
60 | 5 to 10 | Cc1cc(C)nc(NC(=S)N2CCN(C(=O)c3cccc(C(F)(F)F)c3)CC2)c1 [Compound 261]
61 | < 5 | Cc1cc(C)nc(NC(=S)N2CCN(CC3CCCCC3)CC2)c1 [Compound 255]
62 | < 5 | Cc1cc(C)nc(NC(=S)N2CCN(c3cc(C(F)(F)F)nc4ccccc34)CC2)c1 [Compound 122]
63 | 5 to 10 | COc1ccnc(NC(=S)N2CCN(c3ncc(C(F)(F)F)cc3Cl)CC2)c1 [Compound 185]
